Test results reported in article PMC6941357, “An in vitro toolbox to accelerate anti-malarial drug discovery and development” (Malaria Journal, 2020).
Converted amounts (≈) assume the structure as drawn.

Experiments:
CYP3A4 = CYP3A4 (Homo sapiens, UniProt P08684); assay: in vitro; settings: for inhibition at 20 µM: pH 7.4, CYP3A4 (test) % inhibition at max conc
Summary of the method: (§1)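 Each compound is incubated with human liver microsomes and a probe substrate whose conversion is mediated by one CYP isoform. Reactions are then quenched with ice-cold acetonitrile, and the metabolite is determined by LC–MS.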

CYP1A2 = molecular target: T1, CYP1A2 (Homo sapiens, UniProt P05177); assay: in vitro; settings: for CYP1A2 % inhibition at max conc: microsomes
T1 sequence (P05177 1-516): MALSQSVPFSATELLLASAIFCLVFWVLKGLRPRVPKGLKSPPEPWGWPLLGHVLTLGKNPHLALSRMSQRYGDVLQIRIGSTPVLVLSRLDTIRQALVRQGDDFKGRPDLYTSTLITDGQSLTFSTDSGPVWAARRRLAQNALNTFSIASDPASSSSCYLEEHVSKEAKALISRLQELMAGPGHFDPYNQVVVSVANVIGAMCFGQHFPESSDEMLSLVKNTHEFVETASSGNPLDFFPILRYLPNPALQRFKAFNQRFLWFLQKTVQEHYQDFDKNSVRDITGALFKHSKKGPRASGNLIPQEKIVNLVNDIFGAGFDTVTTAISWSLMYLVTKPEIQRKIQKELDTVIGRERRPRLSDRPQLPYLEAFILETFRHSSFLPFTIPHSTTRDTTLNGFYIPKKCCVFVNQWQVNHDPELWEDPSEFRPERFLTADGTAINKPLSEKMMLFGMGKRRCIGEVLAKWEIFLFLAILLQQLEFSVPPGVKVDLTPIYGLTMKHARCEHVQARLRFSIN
Summary of the method: as §1

CYP2C9 = CYP2C9 (Homo sapiens, UniProt P11712); assay: in vitro; settings: for CYP2C9 % inhibition at max conc: microsomes
Sequence of CYP2C9 (P11712 whole entry): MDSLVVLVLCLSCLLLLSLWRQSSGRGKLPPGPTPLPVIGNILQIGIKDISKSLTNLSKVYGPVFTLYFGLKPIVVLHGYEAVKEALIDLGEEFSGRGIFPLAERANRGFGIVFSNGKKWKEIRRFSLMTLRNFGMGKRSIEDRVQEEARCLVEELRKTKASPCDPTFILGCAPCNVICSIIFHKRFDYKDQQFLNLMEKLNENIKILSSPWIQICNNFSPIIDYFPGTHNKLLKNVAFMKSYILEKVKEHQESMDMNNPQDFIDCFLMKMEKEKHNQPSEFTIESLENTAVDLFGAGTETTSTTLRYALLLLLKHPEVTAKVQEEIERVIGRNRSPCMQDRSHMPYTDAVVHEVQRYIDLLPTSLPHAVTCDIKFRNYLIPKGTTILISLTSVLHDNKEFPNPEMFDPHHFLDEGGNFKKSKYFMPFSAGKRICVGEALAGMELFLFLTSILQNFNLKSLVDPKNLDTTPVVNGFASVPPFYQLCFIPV
Summary of the method: as §1

[1] = Plasma protein binding via ultracentrifugation (UC); type: in vitro ADME, human; settings: human, pH 7.4, ultracentrifugation, read-out: Fraction unbound, human plasma
Method: Pooled human plasma (n = 3–4 donors) was obtained by centrifugation of blood (collected by the Australian Red Cross Blood Service, Melbourne, Australia or the Volunteer Blood Donor Registry, Clinical Translation Centre, Walter & Eliza Hall Institute of Medical Research, Parkville, Australia), or sourcing pooled plasma directly from commercial sources (Innovative Research Inc, MI) and stored frozen at − 80 °C.
(§2) An ultracentrifugation method adapted from a previous publication was initially used to assess plasma protein binding and binding in the other media. […] Additional ultracentrifuge tubes containing spiked matrix were maintained at 37 °C, 5% or 10% CO2 or normal atmosphere conditions, with aliquots being taken within 0.5 h of the start and at the end of ultracentrifugation to serve as controls for the assessment of stability and to obtain a measure of the total concentration (Ctotal). Following ultracentrifugation, the pH was checked and an aliquot of protein-free supernate was taken from each ultracentrifuge tube for determination of the unbound concentration (Cunbound).
(§3) Total matrix and protein free samples were analysed using a matrix matching approach whereby each sample was mixed in a 1:1 ratio with the opposite blank medium (i.e. blank total matrix or blank protein free buffer). For example, plasma samples were mixed with blank pH 7.4 buffer whereas plasma supernatant samples were mixed with blank plasma. Each of the sample sets were then assayed against a common calibration curve prepared in a 1:1 mixture of total matrix and protein free pH 7.4 buffer. […] The standard deviation for fu was calculated using the propagation of errors approach as described previously. The potential for compound degradation was assessed by comparing the average value for Ctotal at the start and end of the experiment.

[2] = Solubility limited absorbable dose (SLAD) calculation with predicted human jejunal Peff; settings: for solubility: FaSSIF; for Permeability classification: based on ref 80 and control compounds; for An (absorption number): Peff × tres/R, minimum 1; for SLAD: Ssi × V (500 mL) × Mp; for Predicted human Peff: from Caco-2 Papp via calibration plot
Text: Predicted Peff values were obtained from a calibration plot of literature Peff values vs measured Caco-2 Papp using either buffer or plasma as the transport medium (see Results section).

[3] = Binding to human liver microsomes via ultracentrifugation; type: in vitro ADME; settings: human, liver microsomes, pH 7.4, 0.4 mg/mL protein, read-out: Fraction unbound, HLM
Method: A suspension of human liver microsomes (HLM, XenoTech LLC, Lenexa, KS, USA) was prepared in 0.1 M phosphate buffer (pH 7.4) at a protein concentration of 0.4 mg/mL immediately prior to the experiment.
as §2, §3

in vitro = settings: human, pH 7.4, HLM CLint
Summary of the method: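 Compound depletion in human liver microsomes was followed by LC–MS at 2–60 min, with cofactor-free controls. First-order depletion rate constants gave in vitro CLint (µL/min/mg protein), corrected to unbound CLint using measured microsomal fu.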

CYP2C19 = CYP2C19 (Homo sapiens, UniProt P33261); assay: Cytochrome P450 inhibition in human liver microsomes
Sequence of CYP2C19 (P33261 whole entry): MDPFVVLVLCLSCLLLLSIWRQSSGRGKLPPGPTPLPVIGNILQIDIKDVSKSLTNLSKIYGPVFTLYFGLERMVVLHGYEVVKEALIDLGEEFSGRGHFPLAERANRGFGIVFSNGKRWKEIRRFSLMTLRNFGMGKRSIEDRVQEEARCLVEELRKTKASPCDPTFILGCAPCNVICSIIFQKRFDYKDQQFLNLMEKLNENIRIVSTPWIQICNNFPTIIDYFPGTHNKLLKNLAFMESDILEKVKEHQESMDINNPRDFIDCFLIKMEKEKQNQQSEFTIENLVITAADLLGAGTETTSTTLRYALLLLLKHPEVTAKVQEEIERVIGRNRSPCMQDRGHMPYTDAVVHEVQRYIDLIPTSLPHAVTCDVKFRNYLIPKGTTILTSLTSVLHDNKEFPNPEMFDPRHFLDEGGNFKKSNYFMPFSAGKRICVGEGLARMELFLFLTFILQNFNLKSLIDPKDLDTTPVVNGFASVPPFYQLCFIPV
Summary of the method: as §1

CYP2D6 = CYP2D6 (Homo sapiens, UniProt P10635); assay: as above
Sequence of CYP2D6 (P10635 whole entry): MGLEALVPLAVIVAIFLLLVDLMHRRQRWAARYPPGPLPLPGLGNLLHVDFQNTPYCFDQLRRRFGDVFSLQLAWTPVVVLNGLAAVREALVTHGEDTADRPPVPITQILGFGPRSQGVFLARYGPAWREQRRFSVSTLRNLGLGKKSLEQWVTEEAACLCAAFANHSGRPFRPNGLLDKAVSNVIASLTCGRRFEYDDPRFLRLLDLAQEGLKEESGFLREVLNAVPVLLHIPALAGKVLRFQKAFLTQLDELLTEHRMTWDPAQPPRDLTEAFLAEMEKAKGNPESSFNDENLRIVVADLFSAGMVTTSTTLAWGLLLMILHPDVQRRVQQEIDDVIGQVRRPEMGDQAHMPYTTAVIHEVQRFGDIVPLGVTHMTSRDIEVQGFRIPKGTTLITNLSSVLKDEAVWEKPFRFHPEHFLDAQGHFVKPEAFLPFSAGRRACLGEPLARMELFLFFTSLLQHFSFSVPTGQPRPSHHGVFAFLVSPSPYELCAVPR
Summary of the method: as §1

[4] = neat pooled plasma, neat plasma
[5] = CYP3A4 (midaz) IC50, human liver microsomes, CYP3A4 (midaz), highest concentration tested 20 µM
[6] = liver microsomes, human liver microsomes, average of n = 2 replicates, < 7 means < 15% loss over 60 min
[7] = CYP3A4 (test) IC50, human liver microsomes, CYP3A4 (test), highest concentration tested 20 µM

Sequence of CYP3A4 (P08684 whole entry, canonical isoform): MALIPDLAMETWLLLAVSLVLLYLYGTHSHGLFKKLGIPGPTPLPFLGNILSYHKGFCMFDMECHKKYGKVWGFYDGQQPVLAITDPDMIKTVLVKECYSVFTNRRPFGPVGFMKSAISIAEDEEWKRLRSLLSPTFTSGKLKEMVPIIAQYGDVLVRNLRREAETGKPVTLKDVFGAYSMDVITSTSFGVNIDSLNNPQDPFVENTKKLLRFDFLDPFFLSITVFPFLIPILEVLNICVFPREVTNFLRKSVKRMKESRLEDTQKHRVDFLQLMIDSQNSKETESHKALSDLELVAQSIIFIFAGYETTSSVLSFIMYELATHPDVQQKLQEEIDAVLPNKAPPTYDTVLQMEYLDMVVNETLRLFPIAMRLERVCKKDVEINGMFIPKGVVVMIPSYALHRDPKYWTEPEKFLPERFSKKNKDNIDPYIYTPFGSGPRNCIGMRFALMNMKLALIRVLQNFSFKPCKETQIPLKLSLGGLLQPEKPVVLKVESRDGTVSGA

Row | SMILES | CYP3A4 (midaz) % inhibition at max conc (CYP3A4; microsomes) | CYP1A2 % inhibition at max conc (CYP1A2) | CYP2C9 % inhibition at max conc (CYP2C9) | fraction unbound at […] [1, 4] | solubility [2] [µg/mL] | Permeability classification [2] | fraction unbound at […] [3] | IC50 (CYP2C19) [µM] | CYP2C19 % inhibition at max conc (CYP2C19; microsomes) | IC50 (CYP3A4; [5]) [µM] | IC50 (CYP1A2) [µM] | IC50 (CYP2C9) [µM] | IC50 (CYP2D6) [µM] | microsomal CLint at 1 µM (in vitro; [6]) [µL/min/mg] | CYP3A4 (test) % inhibition at max conc (CYP3A4; microsomes) | An (absorption number) [2] | SLAD [2] [mg] | Predicted human Peff [2] | IC50 (CYP3A4; [7]) [µM] | other results
1 | OC(c1cc(C(F)(F)F)nc2c(C(F)(F)F)cccc12)C1CCCCN1 (stereo not shown) [Mefloquine] | nmi | nmi | nmi | 0.058 | 584 (≈ 1540 µM) | High (> 85% absorption (high)) | 0.05 ± 0.006 | – | – | – | – | – | – | – | – | – | – | – | – | inhibition at 20 µM (CYP3A4; human, microsomes): 29%; microsomal CLint at 1 µM (in vitro; microsomes): < 7 µL/min/mg
2 | CCNCc1cc(Nc2ccnc3cc(Cl)ccc23)ccc1O [Desethylamodiaquine] | nmi | nmi | nmi | 0.17 ± 0.002 | – | – | – | > 18 | nmi | > 18 | > 18 | > 18 | 2.6 | 13.3 | – | – | – | – | – | Ki (CYP2D6): 1.6 µM
3 | C[C@H]1[C@H](OC(=O)CCC(=O)O)O[C@@H]2O[C@@]3(C)CC[C@H]4[C@H](C)CC[C@@H]1[C@@]24OO3 [Artesunate] | nmi | – | nmi | – | 1690 (≈ 4400 µM) | Intermediate (50–84% absorption (intermediate)) | – | > 20 | nmi | – | 20 | > 20 | > 20 | – | nmi | 1.0 | 845 | 0.66 10^−4 cm/s | – | IC50 (CYP3A4; human, microsomes, pH 7.4, CYP3A4 (test) IC50): > 20 µM; Ki (CYP1A2): 12 µM; CYP2D6 % inhibition at max conc (CYP2D6; microsomes): nmi; fraction unbound at […] ([1]; pooled plasma, instability evident, estimate only): 0.27 ± 0.008; microsomal CLint at 1 µM (in vitro; microsomes): 146 µL/min/mg
4 | Clc1ccc2c(N3CCN(CCCN4CCN(c5ccnc6cc(Cl)ccc56)CC4)CC3)ccnc2c1 [Piperaquine] | – | nmi | – | 0.042 | 103 (≈ 192 µM) | High (> 85% absorption (high)) | 0.013 ± 0.002 | > 20 | nmi | 4.5 | > 20 | – | > 20 | 20.1 | nmi | 13 | 685 | 11 10^−4 cm/s | > 20 | Ki (CYP3A4; CYP3A4 (midaz) Ki, human liver microsomes, CYP3A4 (midaz)): 3.2 µM; CYP2D6 % inhibition at max conc (CYP2D6; microsomes): nmi
5 | CCCCN(CCCC)CC(O)c1cc(Cl)cc2c1-c1ccc(Cl)cc1/C2=C/c1ccc(Cl)cc1 (stereo not shown) [Lumefantrine] | nmi | nmi | nmi | – | – | – | – | > 20 | nmi | > 20 | > 20 | > 20 | 2.9 | < 7 | nmi | – | – | – | > 20 | Ki (CYP2D6): 1.8 µM
6 | CC1(C)c2nc(-c3ccc(F)cc3)c(Nc3ccc(F)cc3)n2CCN1C(=O)CN [KAF156] | – | nmi | – | 0.11 | 1600 (≈ 3890 µM) | High (> 85% absorption (high)) | 0.14 ± 0.006 | – | – | – | – | – | – | 14.7 | – | 3.5 | 2780 | 2.9 10^−4 cm/s | – | inhibition at 20 µM (CYP2C19; human, microsomes, pH 7.4): 40%
7 | Cc1cc(Nc2ccc(S(F)(F)(F)(F)F)cc2)n2nc(C(C)(F)F)nc2n1 [DSM265] | – | – | – | 0.008 | – | High (> 85% absorption (high)) | – | – | – | – | – | – | – | – | – | 5.7 | 14 | 4.8 10^−4 cm/s | – | –
8 | C[C@H]1[C@H](N2CCS(=O)(=O)CC2)O[C@@H]2O[C@@]3(C)CC[C@H]4[C@H](C)CC[C@@H]1[C@@]24OO3 [Artemisone] | – | – | – | 0.12 ± 0.006 | 115 (≈ 286 µM) | High (> 85% absorption (high)) | 0.44 ± 0.024 | – | – | – | – | – | – | 97.7 | – | 6.0 | 345 | 5.0 10^−4 cm/s | – | –
9 | Cc1nc(Nc2ncc(N3CCN(C)[C@H](C)C3)c(Nc3cc(C)n(C)n3)n2)cc(C2CC2)c1F [MMV253] | – | nmi | nmi | 0.067 | 569 (≈ 1220 µM) | High (> 85% absorption (high)) | 0.11 ± 0.017 | – | – | – | > 20 | > 20 | > 20 | 13.2 | – | 8.1 | 2300 | 6.8 10^−4 cm/s | > 20 | inhibition at 20 µM (CYP3A4; human, microsomes): 37%; inhibition at 20 µM (CYP2D6; human, microsomes, pH 7.4): 35%
